# Experimental data taken from ChEMBL document CHEMBL1155271, “Synthesis, crystal structures and antibacterial activity studies of aza-derivatives of phytoalexin from cotton plant--gossypol” (2009).
# Active and inactive are the calls of the source. The rule behind the calls is not given here.
# How the values were obtained:
# Type in all cases: functional
# Staphylococcus aureus [1] = experiment: Antimicrobial activity against Methicillin susceptible Staphylococcus aureus 213/7 by twofold dilution technique
# Staphylococcus aureus [2] = experiment: Antimicrobial activity against Methicillin susceptible Staphylococcus aureus 237/7 by twofold dilution technique
# Staphylococcus aureus [3] = experiment: Antimicrobial activity against Methicillin susceptible Staphylococcus aureus 238/7 by twofold dilution technique
# Staphylococcus aureus [4] = experiment: Antimicrobial activity against Methicillin susceptible Staphylococcus aureus 239/7 by twofold dilution technique
# Staphylococcus aureus [5] = experiment: Antimicrobial activity against Methicillin susceptible Staphylococcus aureus 242/7 by twofold dilution technique
# Staphylococcus aureus [6] = experiment: Antimicrobial activity against Methicillin susceptible Staphylococcus aureus 243/7 by twofold dilution technique
# Staphylococcus aureus [7] = experiment: Antimicrobial activity against methicillin-resistant Staphylococcus aureus 140/6 by twofold dilution technique
# Staphylococcus aureus [8] = experiment: Antimicrobial activity against methicillin-resistant Staphylococcus aureus 141/6 by twofold dilution technique
# Staphylococcus aureus [9] = experiment: Antimicrobial activity against methicillin-resistant Staphylococcus aureus 143/6 by twofold dilution technique
# Staphylococcus aureus [10] = experiment: Antimicrobial activity against methicillin-resistant Staphylococcus aureus 144/6 by twofold dilution technique
# Staphylococcus aureus [11] = experiment: Antimicrobial activity against methicillin-resistant Staphylococcus aureus 146/6 by twofold dilution technique
# Staphylococcus aureus [12] = experiment: Antimicrobial activity against methicillin-resistant Staphylococcus aureus 200/7 by twofold dilution technique
# Staphylococcus aureus [13] = experiment: Antimicrobial activity against methicillin-resistant Staphylococcus aureus 217/7 by twofold dilution technique
# Staphylococcus aureus [14] = experiment: Antimicrobial activity against methicillin-resistant Staphylococcus aureus 218/7 by twofold dilution technique
# Staphylococcus aureus [15] = experiment: Antimicrobial activity against methicillin-resistant Staphylococcus aureus 236/7 by twofold dilution technique
# Staphylococcus aureus [16] = experiment: Antimicrobial activity against Staphylococcus aureus NCTC 4163 at 400 ug after 18 hrs by disk diffusion method; settings: NCTC 4163, 18 h, read-out: DIZ
# [17] = tested on: Staphylococcus epidermidis; experiment: Antimicrobial activity against Staphylococcus epidermidis ATCC 12228 at 400 ug after 18 hrs by disk diffusion method; settings: ATCC 12228, 18 h, read-out: DIZ
# Bacillus subtilis [18] = experiment: Antimicrobial activity against Bacillus subtilis ATCC 6633 at 400 ug after 18 hrs by disk diffusion method; settings: ATCC 6633, 18 h, read-out: DIZ
# Bacillus cereus [19] = experiment: Antimicrobial activity against Bacillus cereus ATCC 11778 at 400 ug after 18 hrs by disk diffusion method; settings: ATCC 11778, 18 h, read-out: DIZ
# Enterococcus hirae [20] = experiment: Antimicrobial activity against Enterococcus hirae ATCC 10541 at 400 ug after 18 hrs by disk diffusion method
# Micrococcus luteus [21] = experiment: Antimicrobial activity against Micrococcus luteus ATCC 9341 at 400 ug after 18 hrs by disk diffusion method
# Micrococcus luteus [22] = experiment: Antimicrobial activity against Micrococcus luteus ATCC 10240 at 400 ug after 18 hrs by disk diffusion method; settings: ATCC 10240, 18 h, read-out: DIZ
# Staphylococcus aureus [23] = experiment: Antimicrobial activity against Staphylococcus aureus ATCC 25923 at 400 ug after 18 hrs by disk diffusion method; settings: ATCC 25923, 18 h, read-out: DIZ
# Staphylococcus aureus [24] = experiment: Antimicrobial activity against Staphylococcus aureus ATCC 6538 at 400 ug after 18 hrs by disk diffusion method; settings: ATCC 6538, 18 h, read-out: DIZ
# Staphylococcus aureus [25] = experiment: Antimicrobial activity against Staphylococcus aureus ATCC 29213 at 400 ug after 18 hrs by disk diffusion method; settings: ATCC 29213, 18 h, read-out: DIZ
# Staphylococcus aureus [26] = experiment: Antimicrobial activity against Staphylococcus aureus NCTC 4163 after 18 hrs by twofold dilution technique; settings: NCTC 4163, 18 h
# Staphylococcus aureus [27] = experiment: Antimicrobial activity against Staphylococcus aureus ATCC 25923 after 18 hrs by twofold dilution technique; settings: ATCC 25923, 18 h
# Staphylococcus aureus [28] = experiment: Antimicrobial activity against Staphylococcus aureus ATCC 6538 after 18 hrs by twofold dilution technique; settings: ATCC 6538, 18 h
# Staphylococcus aureus [29] = experiment: Antimicrobial activity against Staphylococcus aureus ATCC 29213 after 18 hrs by twofold dilution technique; settings: ATCC 29213, 18 h
# [30] = tested on: Staphylococcus epidermidis; experiment: Antimicrobial activity against Staphylococcus epidermidis ATCC 12228 by twofold dilution technique
# Bacillus subtilis [31] = experiment: Antimicrobial activity against Bacillus subtilis ATCC 6633 after 18 hrs by twofold dilution technique; settings: ATCC 6633, 18 h
# Bacillus cereus [32] = experiment: Antimicrobial activity against Bacillus cereus ATCC 11778 after 18 hrs by twofold dilution technique; settings: ATCC 11778, 18 h
# Enterococcus hirae [33] = experiment: Antimicrobial activity against Enterococcus hirae ATCC 10541 after 18 hrs by twofold dilution technique; settings: ATCC 10541, 18 h
# Micrococcus luteus [34] = experiment: Antimicrobial activity against Micrococcus luteus ATCC 9341 after 18 hrs by twofold dilution technique; settings: ATCC 9341, 18 h
# Micrococcus luteus [35] = experiment: Antimicrobial activity against Micrococcus luteus ATCC 10240 by twofold dilution technique
# Staphylococcus aureus [36] = experiment: Antimicrobial activity against methicillin-resistant Staphylococcus aureus 136/6 by twofold dilution technique
# Staphylococcus aureus [37] = experiment: Antimicrobial activity against Methicillin susceptible Staphylococcus aureus 206/7 by twofold dilution technique
# Staphylococcus aureus [38] = experiment: Antimicrobial activity against Methicillin susceptible Staphylococcus aureus 207/7 by twofold dilution technique
# Staphylococcus aureus [39] = experiment: Antimicrobial activity against Methicillin susceptible Staphylococcus aureus 208/7 by twofold dilution technique
# Staphylococcus aureus [40] = experiment: Antimicrobial activity against Methicillin susceptible Staphylococcus aureus 212/7 by twofold dilution technique
Compound,MIC (Staphylococcus aureus [1]) [µg/mL],MIC (Staphylococcus aureus [2]) [µg/mL],MIC (Staphylococcus aureus [3]) [µg/mL],MIC (Staphylococcus aureus [4]) [µg/mL],MIC (Staphylococcus aureus [5]) [µg/mL],MIC (Staphylococcus aureus [6]) [µg/mL],MIC (Staphylococcus aureus [7]) [µg/mL],MIC (Staphylococcus aureus [8]) [µg/mL],MIC (Staphylococcus aureus [9]) [µg/mL],MIC (Staphylococcus aureus [10]) [µg/mL],MIC (Staphylococcus aureus [11]) [µg/mL],MIC (Staphylococcus aureus [12]) [µg/mL],MIC (Staphylococcus aureus [13]) [µg/mL],MIC (Staphylococcus aureus [14]) [µg/mL],MIC (Staphylococcus aureus [15]) [µg/mL],zone of inhibition at 400 µg/disc (Staphylococcus aureus [16]) [mm],zone of inhibition at 400 µg/disc [17] [mm],zone of inhibition at 400 µg/disc (Bacillus subtilis [18]) [mm],zone of inhibition at 400 µg/disc (Bacillus cereus [19]) [mm],diameter of the inhibition zone (DIZ) (Micrococcus luteus [21]),other results
COCCN/N=C/c1c(O)c(O)c(C(C)C)c2cc(C)c(-c3c(C)cc4c(C(C)C)c(O)c(O)c(/C=N/NCCOC)c4c3O)c(O)c12,50,100,50,100,50,100,50,100,50,100,100,50,100,100,100,14,15,13,13,inactive,"zone of inhibition at 400 µg/disc (Enterococcus hirae [20]; ATCC 10541, 18 h, read-out: DIZ): 11 mm; zone of inhibition at 400 µg/disc (Micrococcus luteus [22]): 14 mm; zone of inhibition at 400 µg/disc (Staphylococcus aureus [23]): 15 mm; zone of inhibition at 400 µg/disc (Staphylococcus aureus [24]): 13 mm; zone of inhibition at 400 µg/disc (Staphylococcus aureus [25]): 14 mm; MIC (Staphylococcus aureus [26]): 100 µg/mL; MIC (Staphylococcus aureus [27]): 50 µg/mL; MIC (Staphylococcus aureus [28]): 50 µg/mL; MIC (Staphylococcus aureus [29]): 50 µg/mL; MIC [30]: 400 µg/mL; MIC (Bacillus subtilis [31]): 400 µg/mL; MIC (Bacillus cereus [32]): 50 µg/mL; MIC (Enterococcus hirae [33]): 100 µg/mL; MIC (Micrococcus luteus [34]): 50 µg/mL; MIC (Micrococcus luteus [35]): 100 µg/mL; MIC (Staphylococcus aureus [36]): 100 µg/mL; MIC (Staphylococcus aureus [37]): 50 µg/mL; MIC (Staphylococcus aureus [38]): 50 µg/mL; MIC (Staphylococcus aureus [39]): 50 µg/mL; MIC (Staphylococcus aureus [40]): 100 µg/mL"
COCCOC(CN/N=C/c1c(O)c(O)c(C(C)C)c2cc(C)c(-c3c(C)cc4c(C(C)C)c(O)c(O)c(/C=N/NCC(OCCOC)OCCOC)c4c3O)c(O)c12)OCCOC,400,400,400,400,200,> 400,400,400,> 400,400,400,> 400,> 400,> 400,400,11,13,12,12,inactive,diameter of the inhibition zone (DIZ) (Enterococcus hirae [20]): inactive; zone of inhibition at 400 µg/disc (Micrococcus luteus [22]): 14 mm; zone of inhibition at 400 µg/disc (Staphylococcus aureus [23]): 12 mm; zone of inhibition at 400 µg/disc (Staphylococcus aureus [24]): 11 mm; zone of inhibition at 400 µg/disc (Staphylococcus aureus [25]): 11 mm; MIC (Staphylococcus aureus [26]): 400 µg/mL; MIC (Staphylococcus aureus [27]): 400 µg/mL; MIC (Staphylococcus aureus [28]): 400 µg/mL; MIC (Staphylococcus aureus [29]): 400 µg/mL; MIC [30]: > 400 µg/mL; MIC (Bacillus subtilis [31]): > 400 µg/mL; MIC (Bacillus cereus [32]): 400 µg/mL; MIC (Enterococcus hirae [33]): 400 µg/mL; MIC (Micrococcus luteus [34]): 400 µg/mL; MIC (Micrococcus luteus [35]): 400 µg/mL; MIC (Staphylococcus aureus [36]): 400 µg/mL; MIC (Staphylococcus aureus [37]): 400 µg/mL; MIC (Staphylococcus aureus [38]): > 400 µg/mL; MIC (Staphylococcus aureus [39]): > 400 µg/mL; MIC (Staphylococcus aureus [40]): > 400 µg/mL
